For the first experiment, the target named is GST-tagged-Wee1 kinase (Homo sapiens, UniProt P30291). Nature of the experiment: Wee1 time-resolved fluorescence equilibrium binding assay (displacement of Oregon Green-labeled ATP-competitive kinase probe).
GST-tagged-Wee1 kinase, sequence (P30291 whole entry): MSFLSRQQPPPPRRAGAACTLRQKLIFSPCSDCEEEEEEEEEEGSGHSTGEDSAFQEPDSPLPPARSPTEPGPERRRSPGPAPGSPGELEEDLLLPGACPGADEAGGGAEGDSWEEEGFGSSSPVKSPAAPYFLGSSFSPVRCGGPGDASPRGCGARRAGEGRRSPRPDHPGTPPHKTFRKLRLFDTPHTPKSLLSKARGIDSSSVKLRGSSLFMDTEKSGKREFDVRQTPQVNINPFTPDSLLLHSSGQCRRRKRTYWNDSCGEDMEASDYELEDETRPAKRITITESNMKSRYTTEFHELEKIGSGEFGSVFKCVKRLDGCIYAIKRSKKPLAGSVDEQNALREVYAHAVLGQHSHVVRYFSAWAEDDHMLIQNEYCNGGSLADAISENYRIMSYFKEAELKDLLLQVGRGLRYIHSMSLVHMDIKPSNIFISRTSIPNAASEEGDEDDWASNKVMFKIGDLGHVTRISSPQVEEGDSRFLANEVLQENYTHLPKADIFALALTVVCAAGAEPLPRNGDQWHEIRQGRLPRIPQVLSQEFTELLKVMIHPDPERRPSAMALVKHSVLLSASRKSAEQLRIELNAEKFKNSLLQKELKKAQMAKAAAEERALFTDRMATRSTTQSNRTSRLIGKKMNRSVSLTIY
Conditions: not given
The method, then: Wee1 kinase was assayed using a time-resolved fluorescence equilibrium binding assay monitoring displacement of a rapidly reversible Oregon Green-labeled ATP-competitive kinase probe (N-(2-(2-(2-(4-(4-(5-chloro-4-(2-(1-hydroxycyclobutyl)thiazol-5-yl)-1H-pyrrolo[2,3-b]pyridin-2-yl)phenyl)piperazin-1-yl)ethoxy)ethoxy)ethyl)-2′,7′-difluoro-3′,6′-dihydroxy-3-oxo-3H-spiro[isobenzofuran-1,9′-xanthene]-5-carboxamide) by competitive Wee1 inhibitors.
Consider `C=CCn1nc(-c2ccccc2)c2nc(Nc3ccc4c(c3)CN(C)CC43CC3)ncc2c1=O` [Example 172, 6-allyl-2-[(2′-methyl-2′,3′-dihydro-1′H-spiro[cyclopropane-1,4′-isoquinolin]-7′-yl)amino]-8-phenylpyrimido[4,5-d]pyridazin-5(6H)-one], for which the inhibition constant Ki stood at 2.5 nM.

In the case of `O=c1c2cnc(Nc3ccc(N4CCNCC4)cc3)nc2c(C2CC2)nn1-c1c(Cl)cccc1Cl` [Example 392, 8-cyclopropyl-6-(2,6-dichlorophenyl)-2-{[4-(piperazin-1-yl)phenyl]amino}pyrimido[4,5-d]pyridazin-5(6H)-one], affinity was put at a Ki of 0.27 nM.

As for `O=c1c2cnc(Nc3ccc(N4CCNCC4)cc3)nc2c(-c2ccncc2)nn1-c1c(F)cccc1Cl` [Example 297, 6-(2-chloro-6-fluorophenyl)-2-{[4-(piperazin-1-yl)phenyl]amino}-8-(pyridin-4-yl)pyrimido[4,5-d]pyridazin-5(6H)-one], the affinity corresponds to a Ki of 0.19 nM.

`O=C1CCCN1c1ccc(-c2nn(-c3c(Cl)cccc3Cl)c(=O)c3cnc(Nc4ccc(N5CCNCC5)cc4)nc23)cc1` [Example 229, 6-(2,6-dichlorophenyl)-8-[4-(2-oxopyrrolidin-1-yl)phenyl]-2-{[4-(piperazin-1-yl)phenyl]amino}pyrimido[4,5-d]pyridazin-5(6H)-one] gave a Ki of 0.2 nM.

For `Cc1nn(-c2c(Cl)cccc2Cl)c(=O)c2cnc(Nc3cccc(C(=O)N4CCN(C)CC4)c3)nc12` [Example 528, 6-(2,6-dichlorophenyl)-8-methyl-2-({3-[(4-methylpiperazin-1-yl)carbonyl]phenyl}amino)pyrimido[4,5-d]pyridazin-5(6H)-one], the inhibition constant Ki came to 2.4 nM.

`O=c1c2cnc(Nc3ccc(N4CCNCC4)cc3)nc2c(-c2cccc(F)n2)nn1-c1c(Cl)cccc1Cl` [Example 226, 6-(2,6-dichlorophenyl)-8-(6-fluoropyridin-2-yl)-2-{[4-(piperazin-1-yl)phenyl]amino}pyrimido[4,5-d]pyridazin-5(6H)-one] showed a Ki below 1 nM.

For the compound `C=CCn1nc(-c2ccccc2)c2nc(Nc3ccc(CN(C)C)cc3)ncc2c1=O` [Example 143, 6-allyl-2-({4-[(dimethylamino)methyl]phenyl}amino)-8-phenylpyrimido[4,5-d]pyridazin-5(6H)-one], the Ki was found to be 39 nM.

`CC1CCCC(C)C1n1nc(-c2ccccn2)c2nc(Nc3ccc4c(c3)CN(C)CC4(C)C)ncc2c1=O` (stereo not drawn) [Example 330, 6-(2,6-dimethylcyclohexyl)-8-(pyridin-2-yl)-2-[(2,4,4-trimethyl-1,2,3,4-tetrahydroisoquinolin-7-yl)amino]pyrimido[4,5-d]pyridazin-5(6H)-one] showed a Ki of 260 nM.

`C=CCn1nc(-c2ccco2)c2nc(Nc3ccc4c(c3)CN(C)CC43CC3)ncc2c1=O` [Example 144, 6-allyl-8-(2-furyl)-2-[(2′-methyl-2′,3′-dihydro-1′H-spiro[cyclopropane-1,4′-isoquinolin]-7′-yl)amino]pyrimido[4,5-d]pyridazin-5(6H)-one] came in with a Ki of 2 nM.

In turn, `Cc1nn(-c2c(Cl)cccc2Cl)c(=O)c2cnc(Nc3cccc(N4CCN(CCCN(C)C)CC4)c3)nc12` [Example 515, 6-(2,6-dichlorophenyl)-2-[(3-{4-[3-(dimethylamino)propyl]piperazin-1-yl}phenyl)amino]-8-methylpyrimido[4,5-d]pyridazin-5(6H)-one] had a Ki of 0.19 nM.

`O=c1c2cnc(Nc3ccc(C4CCCNC4)cc3)nc2c(C(F)F)nn1-c1c(Cl)cccc1Cl` (stereo not drawn) [Example 479, 6-(2,6-dichlorophenyl)-8-(difluoromethyl)-2-{[4-(piperidin-3-yl)phenyl]amino}pyrimido[4,5-d]pyridazin-5(6H)-one] gave a Ki of 0.29 nM.

With `O=c1c2cnc(Nc3ccc(N4CCNCC4)cc3)nc2c(-c2ccccn2)nn1CCO` [Example 267, 6-(2-hydroxyethyl)-2-{[4-(piperazin-1-yl)phenyl]amino}-8-(pyridin-2-yl)pyrimido[4,5-d]pyridazin-5(6H)-one], the affinity, expressed as Ki, was 240 nM.

In the case of `CN1Cc2cc(Nc3ncc4c(=O)n(-c5c(Cl)cccc5Cl)nc(C(F)(F)F)c4n3)ccc2C2(CC2)C1` [Example 413, 6-(2,6-dichlorophenyl)-2-[(2′-methyl-2′,3′-dihydro-1′H-spiro[cyclopropane-1,4′-isoquinolin]-7′-yl)amino]-8-(trifluoromethyl)pyrimido[4,5-d]pyridazin-5(6H)-one], the Ki turned out to be 0.34 nM.

`CN1CCN(c2ccc(Nc3ncc4c(=O)n(C)nc(C5CCCC5)c4n3)cc2)CC1` [Example 13, 8-cyclopentyl-6-methyl-2-{[4-(4-methylpiperazin-1-yl)phenyl]amino}pyrimido[4,5-d]pyridazin-5(6H)-one] returned a Ki of 620 nM.

With `Cc1nn(-c2c(Cl)cccc2Cl)c(=O)c2cnc(Nc3ccc(C4CCCNC4)cc3)nc12` (stereo not drawn) [Example 459, 6-(2,6-dichlorophenyl)-8-methyl-2-{[4-(piperidin-3-yl)phenyl]amino}pyrimido[4,5-d]pyridazin-5(6H)-one], the affinity corresponds to a Ki of 0.17 nM.

Turning to `CN1CCN(c2ccc(Nc3ncc4c(=O)n(-c5c(Cl)cccc5Cl)nc(-c5cccnc5)c4n3)cc2)CC1` [Example 99, 6-(2,6-dichlorophenyl)-2-{[4-(4-methylpiperazin-1-yl)phenyl]amino}-8-(pyridin-3-yl)pyrimido[4,5-d]pyridazin-5(6H)-one], the Ki was 0.09 nM.

`Cc1nn(-c2c(Cl)cccc2Cl)c(=O)c2cnc(Nc3ccc4c(c3)CN(C)CC43CC3)nc12` [Example 401, 6-(2,6-dichlorophenyl)-8-methyl-2-[(2′-methyl-2′,3′-dihydro-1′H-spiro[cyclopropane-1,4′-isoquinolin]-7′-yl)amino]pyrimido[4,5-d]pyridazin-5(6H)-one] returned a Ki of 0.22 nM.

Take `Cc1nn(-c2ccccc2Cl)c(=O)c2cnc(Nc3ccc(NC4CCNCC4)cc3)nc12` [Example 526, 6-(2-chlorophenyl)-8-methyl-2-{[4-(piperidin-4-ylamino)phenyl]amino}pyrimido[4,5-d]pyridazin-5(6H)-one]: the inhibition constant (Ki) was 0.48 nM.

Compound `COc1cc(Nc2ncc3c(=O)n(-c4ccccc4C)nc(-c4ccco4)c3n2)ccc1N1CCN(C(C)C)CC1` [Example 138, 8-(2-furyl)-2-{[4-(4-isopropylpiperazin-1-yl)-3-methoxyphenyl]amino}-6-(2-methylphenyl)pyrimido[4,5-d]pyridazin-5(6H)-one] displayed a Ki of 1.5 nM.

For the compound `CN1CCN(c2ccc(Nc3ncc4c(=O)n(-c5ccccc5Cl)nc(Cc5ccccc5)c4n3)cc2)CC1` [Example 26, 8-benzyl-6-(2-chlorophenyl)-2-{[4-(4-methylpiperazin-1-yl)phenyl]amino}pyrimido[4,5-d]pyridazin-5(6H)-one], affinity was put at a Ki of 12 nM.

`Cc1nn(-c2c(Cl)cccc2Cl)c(=O)c2cnc(Nc3ccc4c(c3)CN(C)C4)nc12` [Example 491, 6-(2,6-dichlorophenyl)-8-methyl-2-[(2-methyl-2,3-dihydro-1H-isoindol-5-yl)amino]pyrimido[4,5-d]pyridazin-5(6H)-one] registered a Ki of 0.26 nM.

In turn, `Cc1nn(-c2ncccc2Cl)c(=O)c2cnc(Nc3ccc4c(c3)CN(C)CC4(C)C)nc12` [Example 365, 6-(3-chloropyridin-2-yl)-8-methyl-2-[(2,4,4-trimethyl-1,2,3,4-tetrahydroisoquinolin-7-yl)amino]pyrimido[4,5-d]pyridazin-5(6H)-one] returned a Ki of 2.9 nM.

`CN1CCN(c2ccc(Nc3ncc4c(=O)n(-c5c(Cl)cccc5Cl)nc(-c5cccc(F)n5)c4n3)cc2)CC1` [Example 243, 6-(2,6-dichlorophenyl)-8-(6-fluoropyridin-2-yl)-2-{[4-(4-methylpiperazin-1-yl)phenyl]amino}pyrimido[4,5-d]pyridazin-5(6H)-one] displayed a Ki below 1 nM.

With `CN1CCN(c2ccc(Nc3ncc4c(=O)n(-c5ccccc5)nc(-c5ccccc5F)c4n3)cc2)CC1` [Example 37, 8-(2-fluorophenyl)-2-{[4-(4-methylpiperazin-1-yl)phenyl]amino}-6-phenylpyrimido[4,5-d]pyridazin-5(6H)-one], the affinity corresponds to a Ki of 18 nM.

The compound `Cc1nn(-c2c(Cl)cccc2Cl)c(=O)c2cnc(Nc3ccc(N4CCNC(=O)C4)cc3)nc12` [Example 442, 6-(2,6-dichlorophenyl)-8-methyl-2-{[4-(3-oxopiperazin-1-yl)phenyl]amino}pyrimido[4,5-d]pyridazin-5(6H)-one] showed a Ki of 0.46 nM.

In the case of `C=CCn1nc(-c2cccs2)c2nc(Nc3ccc(N4CCCN(C(C)C)CC4)c(C)c3)ncc2c1=O` [Example 163, 6-allyl-2-{[4-(4-isopropyl-1,4-diazepan-1-yl)-3-methylphenyl]amino}-8-(2-thienyl)pyrimido[4,5-d]pyridazin-5(6H)-one], the Ki was determined as 4 nM.

In turn, `C=CCn1nc(-c2ccco2)c2nc(Nc3ccc(N4CCCC4=O)cc3)ncc2c1=O` [Example 269, 8-(furan-2-yl)-2-{[4-(2-oxopyrrolidin-1-yl)phenyl]amino}-6-(prop-2-en-1-yl)pyrimido[4,5-d]pyridazin-5(6H)-one] registered a Ki of 58 nM.

In turn, `Cc1nn(-c2c(Cl)cccc2Cl)c(=O)c2cnc(Nc3ccc4c(c3)CN(S(C)(=O)=O)CC4(C)C)nc12` [Example 441, 6-(2,6-dichlorophenyl)-2-{[4,4-dimethyl-2-(methylsulfonyl)-1,2,3,4-tetrahydroisoquinolin-7-yl]amino}-8-methylpyrimido[4,5-d]pyridazin-5(6H)-one] displayed an inhibition constant (Ki) of 0.72 nM.

`CCCc1nn(-c2ccccc2Cl)c(=O)c2cnc(Nc3ccc(N4CCN(C)CC4)cc3)nc12` [Example 25, 6-(2-chlorophenyl)-2-{[4-(4-methylpiperazin-1-yl)phenyl]amino}-8-propylpyrimido[4,5-d]pyridazin-5(6H)-one] displayed an inhibition constant (Ki) of 1 nM.

Still in this experiment, the particulars now being: read-out: Wee-1 inhibition Ki.
On to “6-(2-chlorophenyl)-8-(6-chloropyridin-2-yl)-2-{[4-(4-methylpiperazin-1-yl)phenyl]amino}pyrimido[4,5-d]pyridazin-5(6H)-one [Example 77]”, for which the Ki stood at 0.7 nM.

What is called Ki is a measure of affinity in units of concentration, obtained from inhibition or displacement.
